Tests used:
recombinant HuBraf V600E = recombinant HuBraf V600E (Homo sapiens, UniProt P15056, V600E); test: B-raf Homogenous Time Resolved Fluorescent (HTRF) kinase assay; format: biochemical; settings: substrate MEK1, 10 uM ATP; threshold lists; read-out: IC50 for the inhibition of B-raf as measured by the HTRF assay
Procedure: A Homogeneous Time Resolved Fluorescence (HTRF) kinase assay was established to assay the ability of compounds to inhibit human mutant Braf kinase activity on the substrate MEK1. […] The final concentration of the kinase reaction buffer is 50 mM Tris-HCL pH 7.5, 10 mM MgCl2, 0.5% glucose, 0.5 mM DTT, 0.01% BSA.
The detection reaction proceeds for one hour and is read on a RubyStar (BMG Labtech) counter. IC50s for the test compounds are generated using Excel-XLfit software.

[1] = test system: A375 cells, a human melanoma cell line having the V600E mutant Braf; test: B-Raf cell-based assay (ratio of phospho-ERK1/2 to total ERK1/2); settings: A-375, 1 h, P-ERK/total ERK, 60 minute incubation, threshold list, read-out: IC50 for the inhibition of B-raf as measured by the cell-based assay
Procedure: A cell-based assay was optimized to assay the ability of compounds to inhibit Braf activity in a whole cell context. […] The cell-based assay quantifies the ratio of phospho-ERK1/2 to total ERK1/2 and can thereby assay the cellular inhibition of Braf kinase activity.
A375 cells are plated into 96 well plates and grown to confluence. The cells are then changed into starve media (DMEM/0.1% BSA) for 60 minutes. Compounds in DMSO dose curves are then diluted in starve media and added to cells. […] After a 60 minute incubation the cells are fixed for 20 minutes at room temperature in 4% formaldehyde with 0.1%Triton X-100, protease and phosphatase inhibitors in PBS. The cells are washed four times in PBS then blocked for 60 minutes using a one to one mix of Odyssey blocking buffer (Li-Cor Biosciences, Inc) and PBS. Primary antibodies (rabbit anti-phospho p42/p44 MAPK (P-ERK1/2) from Cell Signaling Technology and mouse anti-ERK2 from Santa Cruz Biotechnology) are diluted in blocking buffer, added to the cells and incubated overnight at 4° C. The cells are then washed four times in PBS/0.1% Tween-20. Secondary antibodies (anti-mouse IRDye 800CW from Rockland, Inc and anti-rabbit AlexaFlour680 from Molecular Probes) are diluted in blocking buffer/0.5% Tween and incubated on cells for 60 minutes. After 4 washes in PBS/0.1% Tween-20 the microplate is scanned on an Odyssey Infrared Imager (Li-Cor Bioscience) which can read the signal given by the two secondary antibodies on their respective channels. The ratio of P-ERK/total ERK is determined and IC50s generated using Excel-XLfit software.

Chain of recombinant HuBraf V600E (P15056 whole entry V600E): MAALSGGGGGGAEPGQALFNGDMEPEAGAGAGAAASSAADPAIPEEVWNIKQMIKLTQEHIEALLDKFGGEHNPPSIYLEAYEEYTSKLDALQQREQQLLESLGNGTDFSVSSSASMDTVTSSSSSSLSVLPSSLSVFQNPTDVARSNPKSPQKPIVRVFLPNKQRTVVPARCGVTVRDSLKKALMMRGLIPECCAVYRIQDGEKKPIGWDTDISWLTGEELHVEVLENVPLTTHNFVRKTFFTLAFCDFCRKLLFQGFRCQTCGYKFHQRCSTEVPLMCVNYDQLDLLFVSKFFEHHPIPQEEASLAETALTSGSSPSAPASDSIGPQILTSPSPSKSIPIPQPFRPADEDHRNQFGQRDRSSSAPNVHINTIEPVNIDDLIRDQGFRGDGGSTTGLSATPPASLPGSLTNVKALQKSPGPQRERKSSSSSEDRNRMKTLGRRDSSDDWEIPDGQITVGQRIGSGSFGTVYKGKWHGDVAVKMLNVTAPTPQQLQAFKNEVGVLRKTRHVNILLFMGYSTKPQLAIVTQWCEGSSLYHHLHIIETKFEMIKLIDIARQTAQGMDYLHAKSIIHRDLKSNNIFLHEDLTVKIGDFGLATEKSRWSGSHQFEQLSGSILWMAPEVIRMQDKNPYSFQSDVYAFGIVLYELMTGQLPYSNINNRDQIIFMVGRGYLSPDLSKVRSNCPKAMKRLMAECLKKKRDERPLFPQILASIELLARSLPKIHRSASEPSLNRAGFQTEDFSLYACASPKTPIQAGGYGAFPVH

IC50 (recombinant HuBraf V600E) [nM]	IC50 [1] [nM]	Structure (SMILES)
≤ 250	≤ 500	CNc1ncc2cc(-c3c(C)ccc4c(Nc5cccc(C(C)(C)C)c5)nccc34)ccc2n1 [Example 28, 6-(1-((3-(1,1-dimethylethyl)phenyl)amino)-6-methyl-5-isoquinolinyl)-N-methyl-2-quinazolinamine]
≤ 250	≤ 500	CNc1ncc2cc(-c3c(C)ccc4c(Nc5cccc(Cl)c5)nccc34)ccc2n1 [Example 29, 6-(1-((3-chlorophenyl)amino)-6-methyl-5-isoquinolinyl)-N-methyl-2-quinazolinamine]
≤ 250	≤ 500	CNc1ncc2cc(-c3c(C)ccc4c(Nc5cccc(C#N)c5)nccc34)ccc2n1 [Example 30, 3-((6-methyl-5-(2-(methylamino)-6-quinazolinyl)-1-isoquinolinyl)amino)benzonitrile]
≤ 250	≤ 500	CNc1ncc2cc(-c3c(C)ccc4c(Nc5cccc(OC(F)(F)F)c5)nccc34)ccc2n1 [Example 32, N-methyl-6-(6-methyl-1-((3-((trifluoromethyl)oxy)phenyl)amino)-5-isoquinolinyl)-2-quinazolinamine]
≤ 250	≤ 500	CNc1ncc2cc(-c3c(C)ccc4c(Nc5ccc6c(c5)N(C(C)=O)CC6(C)C)nccc34)ccc2n1 [Example 33, 6-(1-((1-acetyl-3,3-dimethyl-2,3-dihydro-1H-indol-6-yl)amino)-6-methyl-5-isoquinolinyl)-N-methyl-2-quinazolinamine]
≤ 250	≤ 500	CNc1ncc2cc(-c3c(C)ccc4c(Nc5cc(C(F)(F)F)ccn5)nccc34)ccc2n1 [Example 34, N-methyl-6-(6-methyl-1-((4-(trifluoromethyl)-2-pyridinyl)amino)-5-isoquinolinyl)-2-quinazolinamine]
≤ 250	≤ 500	CNc1ncc2cc(-c3c(C)ccc4c(Nc5ccc(OC)c(C(F)(F)F)c5)nccc34)ccc2n1 [Example 35, N-methyl-6-(6-methyl-1-((4-(methyloxy)-3-(trifluoromethyl)phenyl)amino)-5-isoquinolinyl)-2-quinazolinamine]
≤ 250	≤ 500	CNc1ncc2cc(-c3c(C)ccc4c(Nc5nnc(C6CC6)s5)nccc34)ccc2n1 [Example 36, 6-(1-((5-cyclopropyl-1,3,4-thiadiazol-2-yl)amino)-6-methyl-5-isoquinolinyl)-N-methyl-2-quinazolinamine]
≤ 250	≤ 500	CNc1ncc2cc(-c3c(C)ccc4c(Nc5ccc6[nH]ncc6c5)nccc34)ccc2n1 [Example 37, 6-(1-(1H-indazol-5-ylamino)-6-methyl-5-isoquinolinyl)-N-methyl-2-quinazolinamine]
≤ 250	≤ 500	CNc1ncc2cc(-c3c(C)ccc4c(Nc5ccc6c(c5)CCC6)nccc34)ccc2n1 [Example 38, 6-(1-(2,3-dihydro-1H-inden-5-ylamino)-6-methyl-5-isoquinolinyl)-N-methyl-2-quinazolinamine]
≤ 250	≤ 500	CNc1ncc2cc(-c3c(C)ccc4c(Nc5ccc6sc(C)nc6c5)nccc34)ccc2n1 [Example 39, N-methyl-6-(6-methyl-1-((2-methyl-1,3-benzothiazol-5-yl)amino)-5-isoquinolinyl)-2-quinazolinamine]
≤ 250	≤ 500	CNc1ncc2cc(-c3c(C)ccc4c(Nc5ccc(F)c(OC(C)C)c5)nccc34)ccc2n1 [Example 40, 6-(1-((4-fluoro-3-((1-methylethyl)oxy)phenyl)amino)-6-methyl-5-isoquinolinyl)-N-methyl-2-quinazolinamine]
≤ 250	≤ 500	CNc1ncc2cc(-c3c(C)ccc4c(Nc5cncc(C(F)(F)F)c5)nccc34)ccc2n1 [Example 41, N-methyl-6-(6-methyl-1-((5-(trifluoromethyl)-3-pyridinyl)amino)-5-isoquinolinyl)-2-quinazolinamine]

From patent US8440674B2, “Substituted pyrimidine compounds as RAF inhibitors and methods of use” (Amgen Inc., priority 2005, dated 2013)
